In US20250314644A1, “METHODS COMPRISING DETECTION OF ADP-HEPTOSE” (CHILDREN'S HOSPITAL MEDICAL CENTER, priority 2023, published 2025):

Tests used:
[1] = tested on: Dnmt3a^KO cells; test: RNA-sequencing of HSPCs treated in vitro with ADP-heptose or H2O for 90 minutes; type: cell-based, mouse
[2] = tested on: WT HSCs; test: ADP-heptose treatment of low-dose irradiated chimeric mice: donor HSC number and engraftment; type: in vivo, mouse; details: ADP-heptose 0.5 mg/kg for 2 weeks
Source text: (§1) To model pre-leukemic clonal hematopoiesis, chimeric mice were generated as aas follows. Briefly, mixture of 1×10^6 whole bone marrow cells (WBM) were obtained from Poly (I:C) treated wild-type (Dnmt3a^+/+; MxCre^+, called Dnmt3a^WT) or mutant mice (Dnmt3a^f/f; MxCre^+, called Dnmt3a^KO) or double mutant mice (Dnmt3a^f/f; MxCre^+; Alpk1^KO, called Dnmt3a^KO; Alpk1^KO) (CD45.2^+), and transplanted into low-dose (2.5 Gy) irradiated recipient mice (CD45.1^+; 6-10 weeks of age). 8 weeks post-transplant, chimeric mice were treated with either water (H2O) or DSS (2.5%) for 1 week, and allowed to recover for 1 more week on water after which flow cytometry was performed on BM. In separate experiment, chimeric mice were pre-treated with broad spectrum antibiotics (ABX) for 4 weeks, and then subjected to DSS for 1 week after which flow cytometry performed on BM. In a separate set of experiment, chimeric mice were treated with either H2O or ADP-heptose (0.5 mg/kg) for 2 weeks, and flow cytometry performed after 2 more weeks on BM. In all the experiments, secondary transplantation was performed by purifying donor HSCs (CD45.2^+Lin^−Sca-1^+c-Kit^+Flk2^−CD150^+CD48^−) and transplanting 100 HSCs with 200,000 helper WBM cells (CD45.1+) into lethally irradiated (8 Gy) recipient mice (CD45.1^+), and donor chimerism in PB examined by flow cytometry.

[3] = tested on: Dnmt3a^−/− HSCs; test: ADP-heptose treatment of low-dose irradiated chimeric mice: donor HSC number in BM, EdU proliferation, secondary transplant; type: in vivo, mouse
Source text: as §1

Nc1ncnc2c1ncn2[C@@H]1O[C@H](COP(=O)(O)OP(=O)(O)O[C@@H]2O[C@H]([C@H](O)CO)[C@@H](O)[C@H](O)[C@@H]2O)[C@@H](O)[C@H]1O [ADP-heptose, ADP-D-glycero-β-D-manno-heptose]
gene expression changes (global transcriptomic analysis) ([1]; Dnmt3a^−/− compared to WT LSKs): significant gene expression changes
logFC ([1]; gene 2610037D02Rik, Dnmt3a^KO cells): −0.596
logFC ([1]; gene 5031425F14Rik, Dnmt3a^KO cells): 0.6597
logFC ([1]; gene 6330549D23Rik, Dnmt3a^KO cells): 0.6997
logFC ([1]; gene A130077B15Rik, Dnmt3a^KO cells): −0.592
logFC ([1]; gene AF251705, Dnmt3a^KO cells): 0.6212
logFC ([1]; gene Adm, Dnmt3a^KO cells): 1.598
logFC ([1]; gene Afp, Dnmt3a^KO cells): 0.7049
logFC ([1]; gene Ahrr, Dnmt3a^KO cells): 1.585
logFC ([1]; gene Angptl2, Dnmt3a^KO cells): 0.6418
logFC ([1]; gene Avil, Dnmt3a^KO cells): 1.557
logFC ([1]; gene Baiap2, Dnmt3a^KO cells): 0.7135
logFC ([1]; gene Baiap2l1, Dnmt3a^KO cells): 0.6616
logFC ([1]; gene C1qb, Dnmt3a^KO cells): 0.6904
logFC ([1]; gene C1qc, Dnmt3a^KO cells): 0.6327
logFC ([1]; gene Carns1, Dnmt3a^KO cells): 0.6216
logFC ([1]; gene Ccl2, Dnmt3a^KO cells): 0.6432
logFC ([1]; gene Ccl24, Dnmt3a^KO cells): 1.576
logFC ([1]; gene Cd28, Dnmt3a^KO cells): 0.6845
logFC ([1]; gene Cd40, Dnmt3a^KO cells): 0.6974
logFC ([1]; gene Cd74, Dnmt3a^KO cells): 0.6203
logFC ([1]; gene Ces1d, Dnmt3a^KO cells): 0.5862
logFC ([1]; gene Chst10, Dnmt3a^KO cells): 0.609
logFC ([1]; gene Ciita, Dnmt3a^KO cells): 0.6462
logFC ([1]; gene Clec10a, Dnmt3a^KO cells): 0.615
logFC ([1]; gene Col1a1, Dnmt3a^KO cells): 0.5944
logFC ([1]; gene Col15a1, Dnmt3a^KO cells): 0.6093
logFC ([1]; gene Cxcl3, Dnmt3a^KO cells): 0.6695
logFC ([1]; gene Cxcr2, Dnmt3a^KO cells): −0.587
logFC ([1]; gene Dcstamp, Dnmt3a^KO cells): 0.7137
logFC ([1]; gene Dnah6, Dnmt3a^KO cells): 0.6061
logFC ([1]; gene Dqx1, Dnmt3a^KO cells): 0.6377
logFC ([1]; gene Emp1, Dnmt3a^KO cells): 0.6342
logFC ([1]; gene Etohi1, Dnmt3a^KO cells): −0.586
logFC ([1]; gene Fam167a, Dnmt3a^KO cells): 0.6175
logFC ([1]; gene Fblim1, Dnmt3a^KO cells): 0.5971
logFC ([1]; gene Flrt2, Dnmt3a^KO cells): 0.7192
logFC ([1]; gene Gm8369, Dnmt3a^KO cells): −0.599
logFC ([1]; gene Gm17455, Dnmt3a^KO cells): 0.7125
logFC ([1]; gene Grap, Dnmt3a^KO cells): 0.6793
logFC ([1]; gene Grm1, Dnmt3a^KO cells): 1.762
logFC ([1]; gene Gzmb, Dnmt3a^KO cells): 0.674
logFC ([1]; gene Gzmc, Dnmt3a^KO cells): 1.782
logFC ([1]; gene H2-DMb2, Dnmt3a^KO cells): 0.6529
logFC ([1]; gene H2-Eb1, Dnmt3a^KO cells): 0.5954
logFC ([1]; gene H2-Eb2, Dnmt3a^KO cells): 0.6221
logFC ([1]; gene H2-K2, Dnmt3a^KO cells): 0.6688
logFC ([1]; gene Hic1, Dnmt3a^KO cells): 1.783
logFC ([1]; gene Hist1h2ag, Dnmt3a^KO cells): 0.6273
logFC ([1]; gene Hist1h2bc, Dnmt3a^KO cells): 0.6716
logFC ([1]; gene Hist1h2be, Dnmt3a^KO cells): 0.6244
logFC ([1]; gene Hist1h2bf, Dnmt3a^KO cells): 0.6891
logFC ([1]; gene Hist1h2bj, Dnmt3a^KO cells): 0.665
logFC ([1]; gene Hist1h4d, Dnmt3a^KO cells): 0.592
logFC ([1]; gene Hyal1, Dnmt3a^KO cells): 0.599
logFC ([1]; gene Igf2bp2, Dnmt3a^KO cells): 0.6643
logFC ([1]; gene Il12rb1, Dnmt3a^KO cells): 0.6261
logFC ([1]; gene Iqcg, Dnmt3a^KO cells): 0.6826
logFC ([1]; gene Itgb7, Dnmt3a^KO cells): 0.6248
logFC ([1]; gene Lars2, Dnmt3a^KO cells): 0.6326
logFC ([1]; gene Lif, Dnmt3a^KO cells): 0.6432
logFC ([1]; gene Loxl3, Dnmt3a^KO cells): 0.5934
logFC ([1]; gene Lrrc51, Dnmt3a^KO cells): 0.669
logFC ([1]; gene Map3k15, Dnmt3a^KO cells): 0.7124
logFC ([1]; gene Matk, Dnmt3a^KO cells): 0.5934
logFC ([1]; gene Mir6236, Dnmt3a^KO cells): 0.6256
logFC ([1]; gene Mmp12, Dnmt3a^KO cells): 0.7097
logFC ([1]; gene Mrc1, Dnmt3a^KO cells): 0.7023
logFC ([1]; gene N4bp3, Dnmt3a^KO cells): 0.6853
logFC ([1]; gene Nqo1, Dnmt3a^KO cells): 0.7094
logFC ([1]; gene Orm1, Dnmt3a^KO cells): −0.598
logFC ([1]; gene P2rx3, Dnmt3a^KO cells): 0.7048
logFC ([1]; gene Pcbp3, Dnmt3a^KO cells): 0.6997
logFC ([1]; gene Pf4, Dnmt3a^KO cells): 0.7165
logFC ([1]; gene Phf1, Dnmt3a^KO cells): 0.595
logFC ([1]; gene Plekhn1, Dnmt3a^KO cells): 0.6207
logFC ([1]; gene Ppp1r3d, Dnmt3a^KO cells): −0.595
logFC ([1]; gene Procr, Dnmt3a^KO cells): −0.595
logFC ([1]; gene Ptgs1, Dnmt3a^KO cells): 0.6215
logFC ([1]; gene Ptprn, Dnmt3a^KO cells): 0.5867
logFC ([1]; gene Pvrl1, Dnmt3a^KO cells): 0.663
logFC ([1]; gene Rap1gap, Dnmt3a^KO cells): 0.6406
logFC ([1]; gene Retnlg, Dnmt3a^KO cells): 0.6829
logFC ([1]; gene Rn45s, Dnmt3a^KO cells): 0.6912
logFC ([1]; gene Rptoros, Dnmt3a^KO cells): 0.6692
logFC ([1]; gene Scn3a, Dnmt3a^KO cells): 1.51
logFC ([1]; gene Serpinb2, Dnmt3a^KO cells): 0.6945
logFC ([1]; gene Slc36a2, Dnmt3a^KO cells): 0.7191
logFC ([1]; gene Spag1, Dnmt3a^KO cells): −0.587
logFC ([1]; gene Spry1, Dnmt3a^KO cells): −0.595
logFC ([1]; gene Srp54b, Dnmt3a^KO cells): 1.636
logFC ([1]; gene Stfa2l1, Dnmt3a^KO cells): −0.599
logFC ([1]; gene Tdrkh, Dnmt3a^KO cells): 0.5973
logFC ([1]; gene Tesc, Dnmt3a^KO cells): 0.607
logFC ([1]; gene Tjp3, Dnmt3a^KO cells): 0.5969
logFC ([1]; gene Tlr5, Dnmt3a^KO cells): 0.5879
logFC ([1]; gene Tpmt, Dnmt3a^KO cells): −0.598
logFC ([1]; gene Trem2, Dnmt3a^KO cells): 0.6257
logFC ([1]; gene Trib3, Dnmt3a^KO cells): 0.677
logFC ([1]; gene Zfp184, Dnmt3a^KO cells): −0.594
logFC ([1]; gene Zfp784, Dnmt3a^KO cells): 0.6147
WT HSCs numbers and engraftment in recipient mice [2]: did not affect
expansion of Dnmt3a^−/− HSCs in BM ([3]; ADP-heptose 0.5 mg/kg for 2 weeks): rapid and significant expansion
proliferation of HSCs in vivo (EdU) ([3]; Dnmt3a^−/− HSCs, within 2 weeks): significant proliferation
self-renewal in secondary recipient mice ([3]; secondary transplant of donor HSCs): sustained self-renewal
